Data reported in patent publication US20140161748A1, “METHODS FOR TREATING SUN-EXPOSED SKIN” (UNIVERSITY OF MANITOBA, priority 2011, published 2014).

Tests used:
[1] = test system: SKH-1 mice; settings: 10 mg/kg in drinking water; after 2 weeks of UV treatment; vs untreated mice
Method: (§1) Ten female SKH-1 mice were obtained from Jackson Laboratory. They were 9 weeks old at the start of the experiment.
(§2) Animals were ordered at 7 weeks of age and half were pretreated with quetiapine (10 mg/kg dissolved in drinking water) for two weeks prior to commencement of UV exposure. The other half were left untreated. Quetiapine was obtained in powder form (batch 1677) from Avlon Works, in Bristol, England, a production site for the pharmaceutical company AstraZeneca. All mice were exposed three times a week for a total of 10 weeks. Exposure intensity was 90 mJ/cm and exposure duration was 7.5 minutes. […] Excessive damage to the skin was not the goal of this study. The lamp used was manufactured by UVP (Upland, Calif., model UVLM-28).
(§3) Animals were free moving in a standard cage, with the light positioned about 30 cm above them. The intensity was measured and animals were not placed under the light until it had reached a stable value.

[2] = test system: Fibroblast cells; settings: fibroblasts, doses 0, 0.01, 0.1 and 1 μM
Method: Fibroblast cells were plated at different densities, and exposed to UVC for various time (0 s, 10 s, 60 s and 360 s), then incubated for another 24 h, 48 h or 72 h (PIT). MTT assay was used to evaluate cell viability.

[3] = test system: fibroblasts
Method: Cultures were examined after 24, 48, and 72 hours after treatment with 0, 0.01, 0.1, 10, or 100 μM of Quetiapine.

[4] = test system: fibroblasts; remark: listed apart in the source
Method: (§4) Fibroblasts were exposed to varying intensities of UVB, 0, 20, 40 and 60 mJ/cm^2 and were examined 24, 48 or 72 hours after. […] MMP-1 or matrix metalloproteinase-1 is an enzyme that is involved in the breakdown of the extracellular matrix in normal physiological processes such as embryonic development, reproduction and tissue modeling. It is also responsible for breaking down collagen. proCOL1A1 is one component that makes up a molecule of type 1 collagen, which is found in most connective tissue, including the skin.

[5] = test system: proCOL1A1; settings: 0.1 μM; UVB 20 mJ/cm^2; compared to UVB control cells
Method: as §4

[6] = test system: fibroblasts; settings: UVB and Quetiapine for 48 hours
[7] = test system: SKH-1 mice
Method: as §1, §2, §3
Skin samples were taken from the dorsal region (along the midline of the mouse close to the hindlimbs) of each mouse using a 6 mm dermal biopsy punch.
Three histological stains were used. Each stain was prepared by the histology technician in the Department of Human Anatomy and Cell Science at the University of Manitoba. Hematoxylin and Eosin (H&E) was used to examine skin structure. Van Gieson stain was used to examine collagen structure, and Verhoeff-Van Gieson stain was used to examine both collagen and elastin fibres.
Skin samples from all animals were embedded in paraffin wax blocks using standard techniques and sectioned at a thickness of 5 microns.
Staining with Hematoxylin and Eosin.
Staining with Van Gieson.
Staining with Verhoeff-Van Gieson.

[8] = 10 mg/kg in drinking water, UV three times a week for 10 weeks

OCCOCCN1CCN(C2=Nc3ccccc3Sc3ccccc32)CC1 [Quetiapine, 2-(2-(4-dibenzo[b,f][1,4]thiazepine-11-yl-1-piperazinyl)ethoxy)ethanol]
skin irritation [1]: less irritation | skin redness [1]: less redness | prevention of UVC induced cytotoxicity [2]: did not prevent UVC induced cytotoxicity regardless of the dose given | cytotoxic effect on fibroblasts ([3]; fibroblast cultures examined 24, 48 and 72 hours after treatment): cytotoxic effect on fibroblasts at high concentrations | survival at 1, 10, and 100 μM ([3]; fibroblasts, 1, 10 and 100 μM): decreased further | concentration at which survival started becoming affected ([3]; fibroblasts, 24, 48, 72 hours, 0-100 μM): 100 nM | alleviation of UVB induced cell viability (MTT assay) [4]: not to alleviate UVB induced cell viability | proCOL1A1 content in cell lysates [5]: significantly increase | effect on cell death (PI-Hoechst 33342 staining) [6]: no effect on cell death | collagen appearance (Van Gieson) [7, 8]: darker staining and uniform, intact appearance of collagen bands | elastic fibre number and structure (Verhoeff-Van Gieson) [7, 8]: better preservation of elastic fibre number and structure | epidermis thickness (Hematoxylin and Eosin) [7, 8]: increased thickness in the untreated group compared to control and quetiapine treated animals | UV induced collagen breakdown and formation of abnormal elastic fibres (summary) ([7]; chronically UV exposed mice): appears to prevent UV induced collagen breakdown and the formation of abnormal elastic fibres
